Experimental data from ChEMBL document CHEMBL1136848, “Parallel medicinal chemistry approaches to selective HDAC1/HDAC2 inhibitor (SHI-1:2) optimization” (Bioorg Med Chem Lett, 2009).
pIC50: −log10 of the molar value. Calls of active or inactive are those of the source. No cut-off for these calls is given here.

Columns and labels:
Histone deacetylase 1 = Histone deacetylase 1 (Homo sapiens, UniProt Q13547); experiment: Inhibition of C-terminal FLAG-tagged human HDAC1 overexpressed in mammalian cells by plate reader method; type: cell-based
HCT-116 [1] = experiment: Antiproliferative activity against human HCT116 cells expressing HDAC after 96 hrs; type: functional, cell-based; settings: for pIC50: HCT-116, 96 h
Histone deacetylase 3 = Histone deacetylase 3 (Homo sapiens, UniProt O15379); experiment: Inhibition of C-terminal FLAG-tagged human HDAC3 overexpressed in mammalian cells by plate reader method; type: cell-based
[2] = molecular target: T1, Voltage-gated inwardly rectifying potassium channel KCNH2 (Homo sapiens, UniProt Q12809)
HCT-116 [3] = experiment: Antiproliferative activity against human HCT116 cells expressing HDAC after 72 hrs; type: functional, cell-based; settings: HCT-116, 72 h
[4] = Half life in rat at 2 mg/kg, iv; type: ADME, organism-based; design: dose 2 mg/kg, route intravenous; settings: in vivo
[5] = molecular target: T1, Voltage-gated inwardly rectifying potassium channel KCNH2; experiment: Inhibition of human ERG at < 10 uM
[6] = Volume of distribution at steady state in dog at 0.5 mg/kg, iv; type: ADME, organism-based, Canis lupus familiaris; design: dose 0.5 mg/kg, route intravenous; settings: in vivo, read-out: Vdss
[7] = Clearance in dog at 0.5 mg/kg, iv; type: ADME, organism-based, Canis lupus familiaris; design: dose 0.5 mg/kg, route intravenous; settings: in vivo
[8] = Increase in acetylated H2B/Total H2B ratio in acute in-vivo HCT116 xenograft model at 25 mg/kg, ip; type: functional; settings: route intraperitoneal
[9] = Half life in dog at 0.5 mg/kg, iv; type: ADME, organism-based, Canis lupus familiaris; design: dose 0.5 mg/kg, route intravenous; settings: in vivo
[10] = Inhibition of calcium ion channel at < 10 uM
[11] = Volume of distribution at steady state in rat at 2 mg/kg, iv; type: ADME, organism-based; design: dose 2 mg/kg, route intravenous; settings: in vivo, read-out: Vdss
[12] = Clearance in rat at 2 mg/kg, iv; type: ADME, organism-based; design: dose 2 mg/kg, route intravenous; settings: in vivo
[13] = Oral bioavailability in dog at 1 mg/kg, po; type: ADME, organism-based, Canis lupus familiaris; settings: in vivo
[14] = Oral bioavailability in rat at 4 mg/kg; type: ADME, organism-based; settings: in vivo
[15] = Bioavailability in rat plasma; type: ADME, organism-based
[16] = Volume of distribution in rat plasma; type: ADME, organism-based
Homo sapiens = organism: Homo sapiens; experiment: Selectivity ratio of IC50 for C-terminal FLAG-tagged human HDAC3 to IC50 C-terminal FLAG-tagged human HDAC1
[17] = Clearance in rat plasma; type: ADME, organism-based
[18] = Half life in rat plasma; type: ADME, organism-based

T1 sequence (Q12809 whole entry): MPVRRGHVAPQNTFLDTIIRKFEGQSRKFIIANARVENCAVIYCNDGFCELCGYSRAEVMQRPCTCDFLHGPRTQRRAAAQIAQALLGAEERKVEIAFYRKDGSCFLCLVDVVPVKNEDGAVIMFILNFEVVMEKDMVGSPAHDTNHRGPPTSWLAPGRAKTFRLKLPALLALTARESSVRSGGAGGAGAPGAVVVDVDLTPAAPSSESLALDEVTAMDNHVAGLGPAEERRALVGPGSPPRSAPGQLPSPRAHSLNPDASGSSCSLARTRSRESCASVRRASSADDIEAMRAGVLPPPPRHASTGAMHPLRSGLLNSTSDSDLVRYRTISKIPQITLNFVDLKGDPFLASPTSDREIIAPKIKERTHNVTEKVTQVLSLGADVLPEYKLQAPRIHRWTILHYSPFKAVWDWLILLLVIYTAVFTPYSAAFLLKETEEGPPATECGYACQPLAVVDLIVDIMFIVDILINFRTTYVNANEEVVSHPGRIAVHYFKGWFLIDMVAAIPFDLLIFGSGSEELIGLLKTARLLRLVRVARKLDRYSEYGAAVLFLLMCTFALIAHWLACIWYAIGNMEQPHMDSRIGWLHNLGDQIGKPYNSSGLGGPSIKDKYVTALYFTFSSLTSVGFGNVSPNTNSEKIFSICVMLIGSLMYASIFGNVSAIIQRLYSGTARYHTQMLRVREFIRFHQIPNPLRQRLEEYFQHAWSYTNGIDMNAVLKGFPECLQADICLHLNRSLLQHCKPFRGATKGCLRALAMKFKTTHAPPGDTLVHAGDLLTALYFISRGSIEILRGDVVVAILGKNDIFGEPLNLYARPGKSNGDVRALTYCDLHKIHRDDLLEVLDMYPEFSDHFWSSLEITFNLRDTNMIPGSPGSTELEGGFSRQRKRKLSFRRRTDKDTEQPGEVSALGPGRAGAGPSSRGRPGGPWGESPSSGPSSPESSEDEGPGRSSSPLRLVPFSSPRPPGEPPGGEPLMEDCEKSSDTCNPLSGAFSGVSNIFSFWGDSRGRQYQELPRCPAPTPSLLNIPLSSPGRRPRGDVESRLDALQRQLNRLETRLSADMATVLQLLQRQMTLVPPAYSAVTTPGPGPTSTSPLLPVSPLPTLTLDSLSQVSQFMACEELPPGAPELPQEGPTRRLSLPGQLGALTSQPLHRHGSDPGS
Sequence of Histone deacetylase 1 (Q13547 whole entry): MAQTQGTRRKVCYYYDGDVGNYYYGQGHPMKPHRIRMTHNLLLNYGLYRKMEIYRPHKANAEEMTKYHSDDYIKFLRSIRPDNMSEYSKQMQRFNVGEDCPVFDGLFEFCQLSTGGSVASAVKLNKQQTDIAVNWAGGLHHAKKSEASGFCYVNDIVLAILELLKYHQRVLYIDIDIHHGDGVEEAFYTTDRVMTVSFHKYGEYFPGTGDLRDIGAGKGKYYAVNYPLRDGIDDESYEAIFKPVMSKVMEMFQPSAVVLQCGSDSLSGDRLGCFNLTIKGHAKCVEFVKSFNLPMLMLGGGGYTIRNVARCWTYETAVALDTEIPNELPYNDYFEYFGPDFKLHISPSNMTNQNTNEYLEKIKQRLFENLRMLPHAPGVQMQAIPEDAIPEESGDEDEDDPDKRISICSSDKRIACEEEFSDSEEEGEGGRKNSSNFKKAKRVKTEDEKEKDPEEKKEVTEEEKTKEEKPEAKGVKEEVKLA
Sequence of Histone deacetylase 3 (O15379 whole entry): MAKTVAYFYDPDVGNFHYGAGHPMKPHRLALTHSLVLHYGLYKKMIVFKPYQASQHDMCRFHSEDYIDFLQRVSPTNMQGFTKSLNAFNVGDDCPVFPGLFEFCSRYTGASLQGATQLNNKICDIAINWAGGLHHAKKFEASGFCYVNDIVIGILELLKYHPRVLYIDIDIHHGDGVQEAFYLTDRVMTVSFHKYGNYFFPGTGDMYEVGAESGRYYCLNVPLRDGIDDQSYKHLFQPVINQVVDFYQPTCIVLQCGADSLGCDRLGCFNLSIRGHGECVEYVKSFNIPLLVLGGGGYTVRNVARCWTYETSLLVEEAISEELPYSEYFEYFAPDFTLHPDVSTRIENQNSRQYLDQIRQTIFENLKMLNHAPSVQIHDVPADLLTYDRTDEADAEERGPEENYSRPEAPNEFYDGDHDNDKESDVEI

| Structure (SMILES) | pIC50 (Histone deacetylase 1) | pIC50 (Histone deacetylase 3) | pIC50 (HCT-116 [3]) | other results |
| --- | --- | --- | --- | --- |
| Cc1ccc(O)c(NC(=O)c2ccc(CNc3ccncc3)cc2)c1 | 4.69 | – | – | Activity (HCT-116 [1]): inactive |
| O=C(NO)c1ccc(CNCCc2cccc(Cl)c2)cc1 | 6.00 | – | – | – |
| COc1ccc(O)c(NC(=O)c2ccc(CNc3ccncc3)cc2)c1 | 5.10 | – | – | Activity (HCT-116 [1]): inactive |
| O=C(Nc1cc(Cl)ccc1O)c1ccc(CNc2ccncc2)cc1 | 5.30 | – | – | Activity (HCT-116 [1]): inactive |
| O=C(NO)c1ccc(CNc2ccc(Cl)cc2)cc1 | 5.79 | – | – | – |
| O=C(Nc1cc(-c2ccccc2)ccc1O)c1ccc(CNCc2cccnc2)cc1 | – | – | – | pIC50 (HCT-116 [1]): 5.87 |
| O=C(NO)c1ccc(CNCc2cccc(Cl)c2)cc1 | 6.46 | – | – | – |
| COc1cccc(CNCc2ccc(C(=O)NO)cc2)c1 | 6.32 | – | – | – |
| O=C(Nc1cc(-c2ccccc2)ccc1O)c1ccc(CNc2ccncc2)cc1 | – | – | – | pIC50 (HCT-116 [1]): 5.76 |
| O=C(Nc1cc(-c2ccccc2)ccc1O)c1ccc(CNCCc2ccccc2)cc1 | – | – | – | Activity (HCT-116 [1]): inactive |
| O=C(NO)c1ccc(CNC2CCCCC2)cc1 | 4.62 | – | – | – |
| CC(C)CNCc1ccc(C(=O)Nc2cc(-c3ccccc3)ccc2O)cc1 | – | – | – | Activity (HCT-116 [1]): inactive |
| O=C(Nc1cc(Br)ccc1O)c1ccc(CNc2ccncc2)cc1 | 5.28 | – | – | Activity (HCT-116 [1]): inactive |
| CC(NCc1ccc(C(=O)Nc2cc(-c3ccccc3)ccc2O)cc1)c1ccncc1 (stereo unspecified) | 7.89 | – | – | pIC50 (HCT-116 [1]): 5.74 |
| O=C(Nc1ccccc1O)c1ccc(CNc2ccncc2)cc1 | 5.80 | – | – | Activity (HCT-116 [1]): inactive |

Continued, in another order:

| pIC50 (Histone deacetylase 1) | pIC50 (Histone deacetylase 3) | pIC50 (HCT-116 [3]) | Structure (SMILES) | other results |
| --- | --- | --- | --- | --- |
| 7.89 | 5.32 | 6.56 | Nc1ccc(-c2ccc(F)cc2)cc1NC(=O)c1ccc(CN2CCC3(CCNC3)CC2)cc1 | pIC50 [2]: 6.63 |
| 7.33 | 5.24 | 5.97 | Nc1ccc(-c2cccc(F)c2)cc1NC(=O)c1ccc(CN2CCC3(CCCN3)CC2)cc1 | – |
| 8.10 | 5.29 | 6.99 | Nc1ccc(-c2ccccc2)cc1NC(=O)c1ccc(C(=O)N2CCC3(CCCN3)CC2)cc1 | half-life [4]: 7 h; Activity [5]: Not Active; Vd [6]: 5.1 L/kg; clearance [7]: 8.2 mL/min/kg; fold change (FC) [8]: 3; half-life [9]: 8.5 h; Activity [10]: inactive; pIC50 [2]: 4.91; Vd [11]: 14 L/kg; clearance [12]: 26 mL/min/kg; bioavailability [13]: 4%; bioavailability [14]: 17% |
| 7.96 | < 4.30 | 6.54 | Nc1ccc(-c2ccccc2F)cc1NC(=O)c1ccc(C(=O)N2CCC3(CCCN3)CC2)cc1 | – |
| 7.80 | 4.76 | 6.33 | Nc1ccc(-c2ccccc2F)cc1NC(=O)c1ccc(CN2CCC3(CCCN3)CC2)cc1 | pIC50 [2]: 6.74 |
| 8.10 | 4.78 | 6.93 | Nc1ccc(-c2ccccc2)cc1NC(=O)c1ccc(CN2CCC3(CCCN3)CC2)cc1 | bioavailability [15]: 70%; Vd [16]: 22 L/kg; Ratio IC50 (Homo sapiens): 2000; clearance [17]: 45 mL/min/kg; half-life [18]: 8 h |
| 7.48 | 5.16 | 6.51 | Nc1ccc(-c2ccccc2)cc1NC(=O)c1ccc(CN2CCC3(CCNC3)CC2)cc1 | – |
| 7.92 | 5.49 | 6.86 | Nc1ccc(-c2ccc(F)cc2)cc1NC(=O)c1ccc(C(=O)N2CCC3(CCCN3)CC2)cc1 | – |
| 8.40 | 5.02 | 7.09 | Nc1ccc(-c2cccs2)cc1NC(=O)c1ccc(CN2CCC3(CCCN3)CC2)cc1 | pIC50 [2]: 5.80 |
| – | 5.27 | 5.44 | CN(Cc1ccc(C(=O)Nc2cc(-c3ccccc3)ccc2N)cc1)c1ccncc1 | – |
| 5.70 | – | – | O=C(Nc1cc(F)ccc1O)c1ccc(CNc2ccncc2)cc1 | Activity (HCT-116 [1]): inactive |
| – | 5.19 | 5.76 | Nc1ccc(-c2ccccc2)cc1NC(=O)c1ccc(CNc2ccncc2)cc1 | – |
| 8.10 | 5.06 | 7.14 | Nc1ccc(-c2ccsc2)cc1NC(=O)c1ccc(CN2CCC3(CCCN3)CC2)cc1 | – |
| 7.96 | 5.36 | 7.15 | Nc1ccc(-c2cccs2)cc1NC(=O)c1ccc(C(=O)N2CCC3(CCCN3)CC2)cc1 | pIC50 [2]: 4.60 |
